Test results published in patent publication US20120053115A1, “Lantibiotic Carboxyamide Derivatives With Enhanced Antibacterial Activity” (Sentinella Pharmaceuticals, Inc., priority 2008, published 2012).

What was measured:
[1] = system: Enterococcus faecium VanS (code 568); settings: E. faecium VanS code 568; 0.02% albumine bovine serum; read after 24 h
Procedure: (§1) MICs were performed using the broth microdilution methodology following the NCCLS procedure (NCCLS Document M7-A4 Vol. 17 No. 2 January 1997) in presence of 0.02% albumine bovine serum with inocula of approximately 5×10^5 cfu/mL. The media employed included cation-adjusted Mueller-Hinton (MH) broth (Difco Laboratories, Detroit, Mich., USA) supplemented or not with 30% (v/v) bovine serum. Tests were read after 24 h incubation at 25-37° C.

[2] = system: S. haemolyticus Met-S (code 1730); settings: 0.02% albumine bovine serum, read after 24 h
Procedure: as §1

[3] = system: S. haemolyticus Met-R (code 1729); settings: 0.02% albumine bovine serum, read after 24 h
Procedure: as §1

[4] = system: S. epidermidis ATCC12228 (code 147); settings: 0.02% albumine bovine serum, read after 24 h
Procedure: as §1

[5] = system: E. faecalisVanS (code 559); settings: E. faecalis VanS code 559; 0.02% albumine bovine serum; read after 24 h
Procedure: as §1

[6] = system: Staphylococcus aureus VISA (code 3798); settings: S. aureus VISA code 3798; 0.02% albumine bovine serum; read after 24 h
Procedure: as §1

[7] = system: Escherichia coli (code 47); settings: 0.02% albumine bovine serum, read after 24 h
Procedure: as §1

[8] = system: Staphylococcus aureus VISA Met-R (code 3797); settings: S. aureus VISA Met-R code 3797; 0.02% albumine bovine serum; read after 24 h
Procedure: as §1

[9] = system: C. albicans ATCC 90028 (code 145); settings: 0.02% albumine bovine serum, read after 24 h
Procedure: as §1

S. pyogenes (code 49) = settings: 0.02% albumine bovine serum, read after 24 h
Procedure: as §1

[10] = system: E. faecalisVanA (code 560); settings: E. faecalis VanA code 560; 0.02% albumine bovine serum; read after 24 h
Procedure: as §1

[11] = system: E. faecium VanA (code 569); settings: 0.02% albumine bovine serum, read after 24 h
Procedure: as §1

C=C1NC(=O)[C@H](C(C)C)NC(=O)[C@H](NC(=O)/C(=C/C)NC(=O)[C@@H](N)[C@@H](C)CC)CSC[C@@H](C(=O)N[C@H]2C(=O)N3CCC[C@H]3C(=O)NCC(=O)N[C@H](C(=O)N[C@H](C(=O)N[C@@H]3CSC[C@@H]4NC(=O)CNC(=O)[C@@H](CSC[C@@H]5NC(=O)[C@H](Cc6c[nH]cn6)NC(=O)[C@@H](CSC[C@@H](C(=O)NCCCN(C)C)NC5=O)NC4=O)NC(=O)CNC(=O)CNC(=O)CNC(=O)[C@H](CCC(=O)NCCCN(C)C)NC3=O)[C@@H](C)O)CS[C@H]2C)NC(=O)[C@H](Cc2c[nH]c3ccccc23)NC1=O [Compound 3]
Minimal Inhibitory Concentrations [1]: 2 µg/mL
Minimal Inhibitory Concentrations [2]: <0.125 µg/mL
Minimal Inhibitory Concentrations [3]: 1 µg/mL
Minimal Inhibitory Concentrations [4]: 2 µg/mL
Minimal Inhibitory Concentrations [5]: 4 µg/mL
Minimal Inhibitory Concentrations [6]: 0.50 µg/mL
Minimal Inhibitory Concentrations [7]: >128 µg/mL
Minimal Inhibitory Concentrations [8]: 1 µg/mL
Minimal Inhibitory Concentrations [9]: 64 µg/mL
Minimal Inhibitory Concentrations (S. pyogenes (code 49)): 2 µg/mL
Minimal Inhibitory Concentrations [10]: 4 µg/mL
Minimal Inhibitory Concentrations [11]: 1 µg/mL

C=C1NC(=O)[C@H](C(C)C)NC(=O)[C@H](NC(=O)/C(=C/C)NC(=O)[C@@H](N)[C@@H](C)CC)CSC[C@@H](C(=O)N[C@H]2C(=O)N3CCC[C@H]3C(=O)NCC(=O)N[C@H](C(=O)N[C@H](C(=O)N[C@@H]3CSC[C@@H]4NC(=O)CNC(=O)[C@@H](CSC[C@@H]5NC(=O)[C@H](Cc6c[nH]cn6)NC(=O)[C@@H](CSC[C@@H](C(=O)NCCN(C)C)NC5=O)NC4=O)NC(=O)CNC(=O)CNC(=O)CNC(=O)[C@H](CCC(=O)NCCN(C)C)NC3=O)[C@@H](C)O)CS[C@H]2C)NC(=O)[C@H](Cc2c[nH]c3ccccc23)NC1=O [Compound 4]
Minimal Inhibitory Concentrations [1]: 1 µg/mL
Minimal Inhibitory Concentrations [2]: <0.125 µg/mL
Minimal Inhibitory Concentrations [3]: 0.50 µg/mL
Minimal Inhibitory Concentrations [4]: 2 µg/mL
Minimal Inhibitory Concentrations [5]: 4 µg/mL
Minimal Inhibitory Concentrations [6]: 0.50 µg/mL
Minimal Inhibitory Concentrations [7]: >128 µg/mL
Minimal Inhibitory Concentrations [8]: 0.50 µg/mL
Minimal Inhibitory Concentrations [9]: 64 µg/mL
Minimal Inhibitory Concentrations (S. pyogenes (code 49)): 0.50 µg/mL
Minimal Inhibitory Concentrations [10]: 2 µg/mL
Minimal Inhibitory Concentrations [11]: 1 µg/mL

C=C1NC(=O)[C@H](C(C)C)NC(=O)[C@H](NC(=O)/C(=C/C)NC(=O)[C@@H](N)[C@@H](C)CC)CSC[C@@H](C(=O)N[C@H]2C(=O)N3CCC[C@H]3C(=O)NCC(=O)N[C@H](C(=O)N[C@H](C(=O)N[C@@H]3CSC[C@@H]4NC(=O)CNC(=O)[C@@H](CSC[C@@H]5NC(=O)[C@H](Cc6c[nH]cn6)NC(=O)[C@@H](CSC[C@@H](C(=O)NCCOC)NC5=O)NC4=O)NC(=O)CNC(=O)CNC(=O)CNC(=O)[C@H](CCC(=O)NCCOC)NC3=O)[C@@H](C)O)CS[C@H]2C)NC(=O)[C@H](Cc2c[nH]c3ccccc23)NC1=O [Compound 11]
Minimal Inhibitory Concentrations [1]: 16 µg/mL
Minimal Inhibitory Concentrations [2]: 4 µg/mL
Minimal Inhibitory Concentrations [3]: 32 µg/mL
Minimal Inhibitory Concentrations [4]: 8 µg/mL
Minimal Inhibitory Concentrations [5]: 16 µg/mL
Minimal Inhibitory Concentrations [6]: 4 µg/mL
Minimal Inhibitory Concentrations [7]: >128 µg/mL
Minimal Inhibitory Concentrations [8]: 8 µg/mL
Minimal Inhibitory Concentrations [9]: 64 µg/mL
Minimal Inhibitory Concentrations [10]: 16 µg/mL
Minimal Inhibitory Concentrations [11]: 8 µg/mL

C=C1NC(=O)[C@H](C(C)C)NC(=O)[C@H](NC(=O)/C(=C/C)NC(=O)[C@@H](N)[C@@H](C)CC)CSC[C@@H](C(=O)N[C@H]2C(=O)N3CCC[C@H]3C(=O)NCC(=O)N[C@H](C(=O)N[C@H](C(=O)N[C@@H]3CSC[C@@H]4NC(=O)CNC(=O)[C@@H](CSC[C@@H]5NC(=O)[C@H](Cc6c[nH]cn6)NC(=O)[C@@H](CSC[C@@H](C(=O)NCCCCN(C)C)NC5=O)NC4=O)NC(=O)CNC(=O)CNC(=O)CNC(=O)[C@H](CCC(=O)NCCCCN(C)C)NC3=O)[C@@H](C)O)CS[C@H]2C)NC(=O)[C@H](Cc2c[nH]c3ccccc23)NC1=O [Compound 12]
Minimal Inhibitory Concentrations [1]: 2 µg/mL
Minimal Inhibitory Concentrations [2]: <0.125 µg/mL
Minimal Inhibitory Concentrations [3]: 1 µg/mL
Minimal Inhibitory Concentrations [4]: 1 µg/mL
Minimal Inhibitory Concentrations [5]: 8 µg/mL
Minimal Inhibitory Concentrations [6]: 1 µg/mL
Minimal Inhibitory Concentrations [7]: >128 µg/mL
Minimal Inhibitory Concentrations [8]: 2 µg/mL
Minimal Inhibitory Concentrations [9]: 64 µg/mL
Minimal Inhibitory Concentrations (S. pyogenes (code 49)): 0.50 µg/mL
Minimal Inhibitory Concentrations [10]: 4 µg/mL
Minimal Inhibitory Concentrations [11]: 1 µg/mL

C=C1NC(=O)[C@H](C(C)C)NC(=O)[C@H](NC(=O)/C(=C/C)NC(=O)[C@@H](N)[C@@H](C)CC)CSC[C@@H](C(=O)N[C@H]2C(=O)N3CCC[C@H]3C(=O)NCC(=O)N[C@H](C(=O)N[C@H](C(=O)N[C@@H]3CSC[C@@H]4NC(=O)CNC(=O)[C@@H](CSC[C@@H]5NC(=O)[C@H](Cc6c[nH]cn6)NC(=O)[C@@H](CSC[C@@H](C(=O)O)NC5=O)NC4=O)NC(=O)CNC(=O)CNC(=O)CNC(=O)[C@H](CCC(=O)O)NC3=O)[C@@H](C)O)CS[C@H]2C)NC(=O)[C@H](Cc2c[nH]c3ccccc23)NC1=O [Compound 97518, reference compound]
Minimal Inhibitory Concentrations [1]: >128 µg/mL
Minimal Inhibitory Concentrations [2]: 128 µg/mL
Minimal Inhibitory Concentrations [3]: 128 µg/mL
Minimal Inhibitory Concentrations [4]: 64 µg/mL
Minimal Inhibitory Concentrations [5]: 128 µg/mL
Minimal Inhibitory Concentrations [6]: >128 µg/mL
Minimal Inhibitory Concentrations [7]: >128 µg/mL
Minimal Inhibitory Concentrations [8]: >128 µg/mL
Minimal Inhibitory Concentrations [9]: 64 µg/mL
Minimal Inhibitory Concentrations (S. pyogenes (code 49)): 0.25 µg/mL
Minimal Inhibitory Concentrations [10]: 128 µg/mL
Minimal Inhibitory Concentrations [11]: >128 µg/mL
